From patent US20250042920A1 (OCEAN UNIVERSITY OF CHINA, priority 2021, published 2025)

Key:
MNK2 = MNK2 (Homo sapiens, UniProt Q9HBH9); assay: MNK2 kinase inhibition assay (LANCE Ultra kinase activity assay, PerkinElmer); format: biochemical; settings: 100 μM ATP; for IC50: five concentrations 10000-1 nM; for inhibition at 1 µM: inhibition rate at 1000 nM compound, 60 min, 25° C., read-out: Inhibitory activity(1 μM) MNK2
Protocol: (§1) MNK1 and MNK2 kinase inhibition assays were performed using LANCE Ultra kinase activity assay developed by PerkinElmer. […] The test steps are as follows: At 25° C., 1.00 ng MNK1 or 0.05 ng MNK2 was prepared with different concentrations (10000, 1000, 100, 10, 1 nM) of the tested compound to form a total volume of 10 μL reaction mixture (MNK1: 12.5 nM CREB, 450 μM ATP, 2 mM DTT, 1× buffer; MNK2: 12.5 nM CREB, 100 μM ATP, 2 mM DTT, 1×buffer), and incubation for 60 min. The reaction was terminated by adding 5 μL EDTA/Detection buffer and 5 μL Eu-CREB/Detection buffer. The ratio of HTRF signals at 615 nm and 665 nm was detected after 60 min of incubation. The inhibition rate was calculated by measuring the compounds at 1000 nM.
(§2) Then five different concentrations (10000, 1000, 100, 10, 1 nM) of the tested compounds were measured, and the IC50 value was calculated according to the inhibition rate fitting curve.

MNK1 = MNK1 (Homo sapiens, UniProt Q9BUB5); assay: MNK1 kinase inhibition assay (LANCE Ultra kinase activity assay, PerkinElmer); format: biochemical; settings: 450 μM ATP; for IC50: five concentrations 10000-1 nM; for inhibition at 1 µM: inhibition rate at 1000 nM compound, 60 min, 25° C., read-out: Inhibitory activity(1 μM) MNK1
Protocol: as §1, §2

MNK2, sequence (Q9HBH9 whole entry): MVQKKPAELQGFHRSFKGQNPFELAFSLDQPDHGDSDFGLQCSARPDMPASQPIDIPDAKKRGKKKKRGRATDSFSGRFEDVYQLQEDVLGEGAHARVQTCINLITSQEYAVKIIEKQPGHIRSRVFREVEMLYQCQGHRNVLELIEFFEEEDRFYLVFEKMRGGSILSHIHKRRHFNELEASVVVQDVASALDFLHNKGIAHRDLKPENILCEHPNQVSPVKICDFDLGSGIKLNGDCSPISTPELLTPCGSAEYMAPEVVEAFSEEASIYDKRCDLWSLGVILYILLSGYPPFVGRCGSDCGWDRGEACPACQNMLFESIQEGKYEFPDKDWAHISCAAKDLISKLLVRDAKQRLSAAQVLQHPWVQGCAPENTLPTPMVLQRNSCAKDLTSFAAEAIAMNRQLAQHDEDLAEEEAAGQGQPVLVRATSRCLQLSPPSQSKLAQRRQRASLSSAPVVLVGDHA
MNK1, sequence (Q9BUB5 whole entry): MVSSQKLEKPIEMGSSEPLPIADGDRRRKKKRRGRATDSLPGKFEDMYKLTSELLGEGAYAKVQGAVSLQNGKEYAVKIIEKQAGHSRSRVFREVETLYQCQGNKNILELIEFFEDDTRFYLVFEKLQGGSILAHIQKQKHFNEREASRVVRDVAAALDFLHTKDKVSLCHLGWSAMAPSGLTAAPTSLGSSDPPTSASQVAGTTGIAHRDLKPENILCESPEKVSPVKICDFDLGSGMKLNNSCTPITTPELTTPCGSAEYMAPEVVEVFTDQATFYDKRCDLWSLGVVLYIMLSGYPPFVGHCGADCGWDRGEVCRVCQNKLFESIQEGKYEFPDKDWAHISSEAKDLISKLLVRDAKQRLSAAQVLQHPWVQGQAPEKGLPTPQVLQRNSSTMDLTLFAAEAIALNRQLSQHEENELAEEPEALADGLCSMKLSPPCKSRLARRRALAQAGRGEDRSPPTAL

Work on `N#Cc1ccc(-c2cnc3sc(-c4ccc(C(=O)N5CCOCC5)cc4)nn23)cc1` [Compound 1, 4-(2-(4-(morpholine-4-carbonyl)phenyl)imidazo[2,1-b][1,3,4]thiadiazol-5-yl)benzonitrile] yielded an IC50 (MNK2) of under 50 nM, an inhibition at 1 µM (MNK2) of over 75% and an IC50 (MNK1) of under 50 nM. It also gave an inhibition at 1 µM (MNK1) of over 75%.
With `O=C(c1ccc(-c2nn3c(-c4ccc(F)cc4)cnc3s2)cc1)N1CCOCC1` [Compound 2, (4-(5-(4-fluorophenyl)imidazo[2,1-b][1,3,4]thiadiazol-2-yl)phenyl)(morpholino)methanone] the IC50 (MNK2) was under 50 nM, the inhibition at 1 µM (MNK2) was over 75% and the IC50 (MNK1) was 200 to 800 nM. For the same molecule, the inhibition at 1 µM (MNK1) was over 75%.
`O=C(c1ccc(-c2nn3c(-c4ccc(O)cc4)cnc3s2)cc1)N1CCOCC1` [Compound 3, (4-(5-(4-hydroxyphenyl)imidazo[2,1-b][1,3,4]thiadiazol-2-yl)phenyl)(morpholino)methanone] was tested, and the IC50 (MNK2) was under 50 nM, the inhibition at 1 µM (MNK2) was over 75% and the IC50 (MNK1) was under 50 nM. The inhibition at 1 µM (MNK1) was over 75%.
For `COC(=O)c1ccc(-c2cnc3sc(-c4ccc(C(=O)N5CCOCC5)cc4)nn23)cc1` [Compound 4], the inhibition at 1 µM (MNK2) was over 75% and the inhibition at 1 µM (MNK1) was over 75%.
Work on `O=C(c1ccc(-c2nn3c(-c4ccc(C(F)(F)F)cc4)cnc3s2)cc1)N1CCOCC1` [Compound 5, morpholino(4-(5-(4-(trifluoromethyl)phenyl)imidazo[2,1-b][1,3,4]thiadiazol-2-yl)phenyl)methanone] yielded an IC50 (MNK2) of 50 to 200 nM, an inhibition at 1 µM (MNK2) of over 75% and an IC50 (MNK1) of 50 to 200 nM. It also gave an inhibition at 1 µM (MNK1) of over 75%.
For `O=C(c1ccc(-c2nn3c(-c4ccc(Cl)cc4)cnc3s2)cc1)N1CCOCC1` [Compound 6, (4-(5-(4-chlorophenyl)imidazo[2,1-b][1,3,4]thiadiazol-2-yl)phenyl)(morpholino)methanone], the IC50 (MNK2) was 50 to 200 nM, the inhibition at 1 µM (MNK2) was over 75% and the IC50 (MNK1) was 50 to 200 nM. The inhibition at 1 µM (MNK1) was over 75%.
In the case of `Cc1ccc(-c2cnc3sc(-c4ccc(C(=O)N5CCOCC5)cc4)nn23)cc1` [Compound 7, morpholino(4-(5-(p-tolyl)imidazo[2,1-b][1,3,4]thiadiazol-2-yl)phenyl)methanone], the inhibition at 1 µM (MNK2) is reported as over 75% and the inhibition at 1 µM (MNK1) is reported as over 75%.
Molecule `O=C(c1ccc(-c2nn3c(-c4ccc(CO)cc4)cnc3s2)cc1)N1CCOCC1` [Compound 8] has an IC50 (MNK2) of 200 to 800 nM, an inhibition at 1 µM (MNK2) of over 75% and an IC50 (MNK1) of 200 to 800 nM. For the same molecule, the inhibition at 1 µM (MNK1) was over 75%.
Work on `O=C(c1ccc(-c2nn3c(-c4ccc(C(F)(F)F)c(F)c4)cnc3s2)cc1)N1CCOCC1` [Compound 9, (4-(5-(3-fluoro-4-(trifluoromethyl)phenyl)imidazo[2,1-b][1,3,4]thiadiazol-2-yl)phenyl)(morpholino)methanone] yielded an inhibition at 1 µM (MNK2) of over 75% and an inhibition at 1 µM (MNK1) of over 75%.
In the case of `O=C(c1ccc(-c2nn3c(-c4ccc(O)c(F)c4)cnc3s2)cc1)N1CCOCC1` [Compound 10, (4-(5-(3-fluoro-4-hydroxyphenyl)imidazo[2,1-b][1,3,4]thiadiazol-2-yl)phenyl)(morpholino)methanone], the IC50 (MNK2) is reported as under 50 nM, the inhibition at 1 µM (MNK2) is reported as over 75% and the IC50 (MNK1) is reported as 50 to 200 nM. The inhibition at 1 µM (MNK1) was over 75%.
`O=C(c1ccc(-c2nn3c(-c4ccc(F)c(F)c4)cnc3s2)cc1)N1CCOCC1` [Compound 11, (4-(5-(3,4-difluorophenyl)imidazo[2,1-b][1,3,4]thiadiazol-2-yl)phenyl)(morpholino)methanone] showed an inhibition at 1 µM (MNK2) of over 75% and an inhibition at 1 µM (MNK1) of over 75%.
For `CN(C)C1CCN(C(=O)c2ccc(-c3nn4c(-c5ccc(F)cc5)cnc4s3)cc2)CC1` [Compound 13, (4-(dimethylamino)piperidin-1-yl)(4-(5-(4-fluorophenyl)imidazo[2,1-b][1,3,4]thiadiazol-2-yl)phenyl)methanone], the IC50 (MNK2) was under 50 nM, the inhibition at 1 µM (MNK2) was over 75% and the IC50 (MNK1) was under 50 nM. The inhibition at 1 µM (MNK1) was over 75%.
